# Where “and” joins values, the source holds several entries; their conditions need not be identical. Equal values may be shown once.
# Legend:
# [1] = Urine and faeces analysis by ICP-OES (Pt element); assay type: in vivo, mice; set-up: Pt in urine / Pt in feces: unit not given beside the values
# Protocol: page 47: determined using ELISA kits according to manufacturer 's protocol. Determination of the blood circulation half-life. […], or CDDP (at a dose of 2.25 mg kg-1 Pt) was i.v. injected into healthy female BALB/c nude mice (6-8 weeks old). […] The collected blood was digested with concentrated HNO3 (65-70%, 2 mL) and HCl (36~38%, 1 mL) at 90 °C overnight. The residues were then diluted with 5 mL 2% HNO3 and 5% HCl solution, and the concentrations of Pt element were determined by ICP-OES, which were further applied to calculate the contents of Pt element in the blood. The plot of the percentage of Pt element remained in the blood versus injection time to yield the pharmacokinetic time. Urine and Faeces analysis. […] Urine and faeces were collected at 2 (for 0-2 h), 4 (for 2-4 h), 8 (for 4- 8 h) and 12 h (for […]), which were diluted in methanol and centrifuged at 3,600 × g for 10 min, followed by filtering via a 0.22 μm syringe filter. The solutions were analyzed by HPLC (660 nm detection) to characterize all the mCy-containing compounds. Using the established standard curves for […] Cy-COOH, the amount of each compound in the urine and faeces could be calculated, which were further applied to determine the percentage of them in the urine and faeces. The data were summarized in Supplementary Tables 5-8. […] Urine and faeces were collected and weighed. The urine and faeces were digested with concentrated HNO3 (65~70%) and HCl (36~38%) at 90 °C for 24 h. The solution was diluted to 5 mL 2% HNO3 and 5% HCl solution, and the concentration of Pt element was measured by ICP-OES, which was further applied to calculate the percentage of Pt in corresponding urine and faeces. The data were summarized in Supplementary Tables 9 and 10. 47
# [2] = General design summary of signals and cytotoxicity (Fig. 1a)
# Excerpt: P-CyPt is designed to (1) offer activatable near-infrared (NIR) FL and PA signals for bimodality imaging through ALP-mediated in situ self-assembly and (2) release CDDP for on-demand therapy via GSH-triggered disassembly (Fig. 1a). […] After systemic administration, P-CyPt as a small molecule can extravasate and penetrate deeply into tumor tissues (Fig. 1b). In tumor tissues that are membrane-bound ALP positive, rapid dephosphorylation of P-CyPt by the membrane-bound ALP generates CyPt, switching on NIR FL (λem = 710 nm) and PA signals (λ = 700 nm); moreover, CyPt with increased hydrophobicity is susceptible to self-assembly into Pt(IV) nanoparticles (Pt^IVNPs), which turns on another PA signal (λ = 750 nm) resulting from the aggregation-caused bathochromic shift. The on-site formed Pt^IVNPs can anchor on the cell membranes, which attenuate diffusion, prolong retention, and enhance translocation into cells[32],[33]. Within tumor cells, the abundant endogenous GSH can reduce Pt(IV) into Pt(II), producing negatively charged Cy-COOH that promotes NPs disassembly and accelerates release of CDDP intracellularly. This process dramatically raises intracellular CDDP’s concentration while depletes GSH’s level to effectively kill tumor cells. Moreover, the disassembly of Pt^IVNPs into Cy-COOH further increases NIR FL (called as “ON-ON”) as the aggregation-caused quenching (ACQ) effect is eliminated; however, the PA signal at 750 nm is turned off but the PA signal at 700 nm is kept at “ON” state. The sequential switches in NIR FL and PA bimodal imaging signals can allow P-CyPt to reliably monitor the ALP-triggered in situ self-assembly and GSH-driven disassembly process in vivo, facilitating to guide precise chemotherapy of tumors.
# [3] = Urine and faeces analysis by HPLC (mCy-containing compounds); assay type: in vivo; conditions: Time period 8-12 h; individual mice
# [4] = Urine and faeces analysis by ICP-OES (Pt element); assay type: in vivo, mice; set-up: Pt in urine / Pt in feces: unit not given beside the values; remark: listed apart in the source
# [5] = test system: s.c. HeLa tumors; assay: Chemotherapy of s.c. HeLa tumors in vivo; set-up: species or system mice
# Protocol: Sixteen mice with s.c. […] Each experiment was conducted in four mice.
# [6] = i.v. 2.25 mg kg-1 Pt, 0-2 h, ICP-OES
smiles,measurement,setting,value
CC1(C)C(/C=C/C2=C3Oc4cc(O)c(Cl)cc4C=C3CCC2)=[N+](CCCNC(=O)[C@@H](Cc2ccccc2)NC(=O)[C@@H](Cc2ccccc2)NC(=O)CCC(=O)[O][Pt]([NH2])([NH2])([OH])([Cl])[Cl])c2ccccc21 [CyPt],Percentage of Pt element excreted to the faeces,[1]; 2-4 h,16.51 ± 1.34%
same,Percentage of Pt element excreted to the faeces,[1]; 4-8 h,21.52 ± 1.73%
same,Percentage of Pt element excreted to the faeces,[1]; [6],0.63 ± 0.21%
same,Cytotoxicity,[2],Low
same,FL at 710 nm,[2],High
same,PA at 700 nm,[2],High
same,PA at 750 nm,[2],Low
same,"Compound found in excreta (%), Supplementary Table S5",[3],0%
same,"Compound found in excreta (%), Supplementary Table S6",[3],0.6127% and 0.8857% and 0.7667%
same,"Compound found in excreta (%), Supplementary Table S7",[3],0.79% and 1.63% and 1.075%
same,Percentage of Pt element excreted to the faeces,[4]; 8-12 h,3.69 ± 0.77%
CC1(C)C(/C=C/C2=C3Oc4cc(OP(=O)(O)O)c(Cl)cc4C=C3CCC2)=[N+](CCCNC(=O)[C@@H](Cc2ccccc2)NC(=O)[C@@H](Cc2ccccc2)NC(=O)CCC(=O)[O][Pt]([NH2])([NH2])([OH])([Cl])[Cl])c2ccccc21 [P-CyPt],average tumor weight at end of treatment,[5]; day 21,significantly smaller than the other three groups
same,tumor volume growth on day 21,"[5]; s.c. HeLa, 2.25 mg kg^−1 Pt i.v. on day 0, 3, 6, 9, 12",no apparent tumor growth
same,Percentage of Pt element excreted to the faeces,[1]; 2-4 h,5.92 ± 0.64%
same,Percentage of Pt element excreted to the urine,[1]; 2-4 h,13.38 ± 1.45%
same,Percentage of Pt element excreted to the faeces,[1]; 4-8 h,16.94 ± 1.87%
same,Percentage of Pt element excreted to the urine,[1]; 4-8 h,9.24 ± 1.49%
same,Percentage of Pt element excreted to the urine,[1]; 8-12 h,3.41 ± 0.84%
same,Pt in urine,"[1]; Fig.6g, 0-2 h, mean of 3 mice",15.772
same,Pt in urine,"[1]; Fig.6g, 0-2 h, single mice",15.461 and 17.665 and 14.190
same,Pt in urine,"[1]; Fig.6g, 2-4 h, mean of 3 mice",13.380
same,Pt in urine,"[1]; Fig.6g, 2-4 h, single mice",13.090 and 14.953 and 12.095
same,Pt in urine,"[1]; Fig.6g, 4-8 h, mean of 3 mice",9.236
same,Pt in urine,"[1]; Fig.6g, 4-8 h, single mice",9.456 and 10.608 and 7.644
same,Pt in urine,"[1]; Fig.6g, 8-12 h, mean of 3 mice",3.408
same,Pt in feces,"[1]; Fig.6h, 0-2 h, mean of 3 mice",0.386
same,Pt in feces,"[1]; Fig.6h, 0-2 h, single mice",0.346 and 0.489 and 0.323
same,Pt in feces,"[1]; Fig.6h, 2-4 h, mean of 3 mice",5.927
same,Pt in feces,"[1]; Fig.6h, 2-4 h, single mice",5.543 and 6.667 and 5.573
same,Pt in feces,"[1]; Fig.6h, 4-8 h, mean of 3 mice",16.944
same,Pt in feces,"[1]; Fig.6h, 4-8 h, single mice",16.548 and 18.982 and 15.301
same,Pt in feces,"[1]; Fig.6h, 8-12 h, mean of 3 mice",4.404
same,Pt accumulatively cleared (urine + faeces),[1]; during 12 h,~ 69.4%
same,Pt in feces,"[1]; feces collected 0-2 h, mouse-1",0.346
same,Pt in feces,"[1]; feces collected 0-2 h, mouse-2",0.489
same,Pt in feces,"[1]; feces collected 0-2 h, mouse-3",0.323
same,Pt in feces,"[1]; feces collected 2-4 h, mouse-1",5.543
same,Pt in feces,"[1]; feces collected 2-4 h, mouse-2",6.667
same,Pt in feces,"[1]; feces collected 2-4 h, mouse-3",5.573
same,Pt in feces,"[1]; feces collected 4-8 h, mouse-1",16.548
same,Pt in feces,"[1]; feces collected 4-8 h, mouse-2",18.982
same,Pt in feces,"[1]; feces collected 4-8 h, mouse-3",15.301
same,Pt in feces,"[1]; feces collected 8-12 h, mouse-1",4.215
same,Pt in feces,"[1]; feces collected 8-12 h, mouse-3",4.002
same,Percentage of Pt element excreted to the faeces,[1]; [6],0.38 ± 0.090%
same,Percentage of Pt element excreted to the urine,[1]; [6],15.78 ± 1.76%
same,"Pt in urine, mean","[1]; urine collected 0-2 h, mean of 3 mice",15.772
same,Pt in urine,"[1]; urine collected 0-2 h, mouse-1",15.461
same,Pt in urine,"[1]; urine collected 0-2 h, mouse-2",17.665
same,Pt in urine,"[1]; urine collected 0-2 h, mouse-3",14.190
same,"Pt in urine, mean","[1]; urine collected 2-4 h, mean of 3 mice",13.380
same,Pt in urine,"[1]; urine collected 2-4 h, mouse-1",13.090
same,Pt in urine,"[1]; urine collected 2-4 h, mouse-2",14.953
same,Pt in urine,"[1]; urine collected 2-4 h, mouse-3",12.095
same,"Pt in urine, mean","[1]; urine collected 4-8 h, mean of 3 mice",9.236
same,Pt in urine,"[1]; urine collected 4-8 h, mouse-1",9.456
same,Pt in urine,"[1]; urine collected 4-8 h, mouse-2",10.608
same,Pt in urine,"[1]; urine collected 4-8 h, mouse-3",7.644
same,"Pt in urine, mean","[1]; urine collected 8-12 h, mean of 3 mice",3.408
same,Pt in urine,"[1]; urine collected 8-12 h, mouse-1",3.228
same,Pt in urine,"[1]; urine collected 8-12 h, mouse-2",4.327
same,Pt in urine,"[1]; urine collected 8-12 h, mouse-3",2.669
same,Cytotoxicity,[2],Low
same,FL at 710 nm,[2],Low
same,PA at 700 nm,[2],Low
same,PA at 750 nm,[2],Low
same,"Compound found in excreta (%), Supplementary Table S5",[3],1.424% and 1.642% and 1.178%
same,"Compound found in excreta (%), Supplementary Table S6",[3],0.04756% and 0.06874% and 0.05951%
same,Percentage of Pt element excreted to the faeces,[4]; 8-12 h,4.40 ± 0.52%
same,Pt in urine,"[4]; Fig.6g, 8-12 h, single mice",3.228 and 4.327 and 2.669
same,Pt in feces,"[4]; Fig.6h, 8-12 h, single mice",4.215 and 4.995 and 4.002
same,Pt in feces,"[4]; feces collected 8-12 h, mouse-2",4.995

# — PMC9925730, “Controlled sequential in situ self-assembly and disassembly of a fluorogenic cisplatin prodrug for cancer theranostics” (Nature Communications, 2023)
